Reference: ChEMBL document CHEMBL5321295, “Targeted Degradation of Alpha-Synuclein by Autophagosome-Anchoring Chimera Peptides” (J Med Chem, 2023)
Active and inactive are the calls of the source. No cut-off for these calls is given here.

Key:
Alpha-synuclein [1] = biological target: T1, Alpha-synuclein (Homo sapiens, UniProt P37840); experiment: Binding affinity to alpha-synuclein (unknown origin) overexpressed in HEK293T cells assessed as shift in denaturation at 50 uM incubated for 4 hrs followed by heating at 40 to 75 degreeC for 3 mins by CETSA assay; assay type: cell-based; settings: time 243.0 min
SH-SY5Y [2] = experiment: Cytoprotective activity in human SH-SY5Y cells transfected with alpha-synuclein (unknown origin) assessed as increase in mitochondrial membrane potential level at 100 uM measured after 24 hrs by confocal laser scanning microscopy/flow cytometry (reference value: 45.02 +/- 5.04 %); assay type: functional
[3] = biological target: T2, Microtubule-associated protein 1 light chain 3 beta (Homo sapiens, UniProt Q9GZQ8); experiment: Binding affinity to biotinylated recombinant LC3B (unknown origin) assessed as dissociation constant by BLI assay
HEK-293T [4] = experiment: Downregulation of UBE2L3 expression in HEK293T cells at 100 uM incubated for 24 hrs by proteomic profiling analysis; assay type: functional, cell-based; settings: Homo sapiens
HEK-293T [5] = experiment: Downregulation of AKR1B1 expression in HEK293T cells at 100 uM incubated for 24 hrs by proteomic profiling analysis; assay type: functional, cell-based; settings: Homo sapiens
HEK-293T [6] = experiment: Downregulation of THOP1 expression in HEK293T cells at 100 uM incubated for 24 hrs by proteomic profiling analysis; assay type: functional, cell-based; settings: Homo sapiens
HEK-293T [7] = experiment: Downregulation of MARCKS expression in HEK293T cells at 100 uM incubated for 24 hrs by proteomic profiling analysis; assay type: functional, cell-based; settings: Homo sapiens
HEK-293T [8] = experiment: Downregulation of EIF2S1 expression in HEK293T cells at 100 uM incubated for 24 hrs by proteomic profiling analysis; assay type: functional, cell-based; settings: Homo sapiens
HEK-293T [9] = experiment: Downregulation of SLC25A3 expression in HEK293T cells at 100 uM incubated for 24 hrs by proteomic profiling analysis; assay type: functional, cell-based; settings: Homo sapiens
HEK-293T [10] = experiment: Downregulation of MAT1A expression in HEK293T cells at 100 uM incubated for 24 hrs by proteomic profiling analysis; assay type: functional, cell-based; settings: Homo sapiens
HEK-293T [11] = experiment: Downregulation of DLST expression in HEK293T cells at 100 uM incubated for 24 hrs by proteomic profiling analysis; assay type: functional, cell-based; settings: Homo sapiens
HEK-293T [12] = experiment: Downregulation of ELOB expression in HEK293T cells at 100 uM incubated for 24 hrs by proteomic profiling analysis; assay type: functional, cell-based; settings: Homo sapiens
HEK-293T [13] = experiment: Downregulation of SNCA expression in HEK293T cells at 100 uM incubated for 24 hrs by proteomic profiling analysis; assay type: functional, cell-based; settings: Homo sapiens
Alpha-synuclein [14] = biological target: T1, Alpha-synuclein; experiment: Induction of EGFP-fused alpha-synuclein (unknown origin) degradation overexpressed in HEK293T cells assessed as colocalization of alpha-synuclein with mCherry-fused LC3B at 50 uM incubated for 2 hrs by confocal laser scanning microscopy; assay type: cell-based
[15] = biological target: T2, Microtubule-associated protein 1 light chain 3 beta; experiment: Binding affinity to LC3B in HEK293T cells overexpressing alpha-synuclein (unknown origin) at 50 to 100 uM incubated for 4 hrs by co-IP assay; assay type: cell-based; settings: dose 50-100 µM
[16] = Drug localization in HEK293T cells overexpressing mCherry-fused alpha-synuclein (unknown origin) assessed as colocalization of lysosomes at 50 uM incubated for 2 hrs by MDC staining based confocal laser scanning microscopy; assay type: ADME, cell-based; settings: human, hek-293t
SH-SY5Y [17] = experiment: Cytoprotective activity in human SH-SY5Y cells transfected with alpha-synuclein (unknown origin) assessed as decrease in ROS level at 100 uM measured after 24 hrs by DCFH-DA staining based flow cytometry (reference value: 76 %); assay type: functional; design: scale not given: the % may be the effect or the level left
SH-SY5Y [18] = experiment: Cytoprotective activity in human SH-SY5Y cells transfected with alpha-synuclein (unknown origin) assessed as cell viability at 25 uM by CCK8 assay relative to control; assay type: functional; settings: read-out: Activity
SH-SY5Y [19] = experiment: Cytoprotective activity in human SH-SY5Y cells assessed as increase in CCCP-induced mitochondrial membrane potential level at 100 uM measured after 24 hrs by JC-1 staining based confocal laser scanning microscopy; assay type: functional, cell-based
Mus musculus [20] = experiment: Downregulation of alpha-synuclein level in substantia nigra pars compacta of MPTP-treated C57BL/6 mouse at 50 mg/kg/day, iv treated for 5 days by IHC analysis; assay type: functional, organism-based; settings: time 5.0 day
Mus musculus [21] = experiment: Neuroprotective activity in MPTP-treated C57BL/6 mouse assessed as neuron viability in substantia nigra pars compacta at 50 mg/kg/day, iv treated for 5 days by Nissl staining based microscopy; assay type: functional, organism-based; settings: time 5.0 day
Mus musculus [22] = experiment: Neuroprotective activity in MPTP-treated C57BL/6 mouse assessed as decrease in impaired neurons in substantia nigra pars compacta at 50 mg/kg/day, iv treated for 5 days by FJB staining based microscopy; assay type: functional, organism-based; settings: time 5.0 day
Mus musculus [23] = experiment: Neuroprotective activity in MPTP-treated C57BL/6 mouse assessed as increase in dopaminergic neurons of substantia nigra pars compacta at 50 mg/kg/day, iv treated for 5 days by immunofluorescent staining of tyrosine hydroxylase based microscopy; assay type: functional, organism-based; settings: time 5.0 day
Mus musculus [24] = experiment: Downregulation of phosphorylated alpha-synuclein at S129 residue level in substantia nigra pars compacta of MPTP-treated C57BL/6 mouse at 50 mg/kg/day, iv treated for 5 days by IHC analysis; assay type: functional, organism-based; settings: time 5.0 day
Mus musculus [25] = experiment: Downregulation of phosphorylated alpha-synuclein at S129 residue level in substantia nigra pars compacta of MPTP-treated C57BL/6 mouse at 50 mg/kg/day, iv treated for 5 days by immunoblot analysis; assay type: functional, organism-based; settings: time 5.0 day
Mus musculus [26] = experiment: Neuroprotective activity in MPTP-induced cognitive impairment in C57BL/6 mouse assessed as decrease in total distance travelled in navigation trial phase at 50 mg/kg/day, iv treated for 5 days measured after 5 to 8 days days by morris water maze test; assay type: functional, organism-based; settings: time 10-13 day
Mus musculus [27] = experiment: Neuroprotective activity in MPTP-induced cognitive impairment in C57BL/6 mouse assessed as increase in time spent in target quadrant in probe trial phase at 50 mg/kg/day, iv treated for 5 days measured after 5 to 8 days days by morris water maze test; assay type: functional, organism-based; settings: time 10-13 day
[28] = Toxicity in C57BL/6 mouse assessed as dyspnea at 50 to 200 mg/kg/day treated for 5 days; assay type: organism-based; settings: in vivo, 120 h, dose 50-200 mg/kg/day, time 5 day
[29] = Toxicity in C57BL/6 mouse assessed as change in LDHL level at 50 to 200 mg/kg/day treated for 5 days; assay type: organism-based; settings: in vivo, 120 h, dose 50-200 mg/kg/day, time 5 day
[30] = Toxicity in C57BL/6 mouse assessed as histological change in liver at 50 to 200 mg/kg/day treated for 5 days by H and E staining based analysis; assay type: organism-based; settings: in vivo, 120 h, dose 50-200 mg/kg/day, time 5 day
[31] = Toxicity in C57BL/6 mouse assessed as histological change in kidney at 50 to 200 mg/kg/day treated for 5 days by H and E staining based analysis; assay type: organism-based; settings: in vivo, 120 h, dose 50-200 mg/kg/day, time 5 day

In the case of `CC(C)C[C@H](NC(=O)[C@H](Cc1c[nH]cn1)NC(=O)[C@@H](NC(=O)[C@H](Cc1c[nH]c2ccccc12)NC(=O)[C@H](CC(=O)O)NC(=O)[C@H](CC(=O)O)NC(=O)[C@H](CC(=O)O)NC(=O)CNC(=O)CNC(=O)[C@H](CO)NC(=O)[C@H](CO)NC(=O)CNC(=O)[C@H](CO)NC(=O)CNC(=O)[C@H](CCCNC(=N)N)NC(=O)[C@@H](NC(=O)[C@H](CCCCN)NC(=O)[C@H](CO)NC(=O)CNC(=O)[C@@H](NC(=O)[C@H](Cc1ccc(O)cc1)NC(=O)[C@H](CC(C)C)NC(=O)[C@@H](NC(=O)CN)C(C)C)C(C)C)[C@H](C)O)[C@@H](C)O)C(=O)N[C@@H](CO)C(=O)N[C@@H](CO)C(=O)N[C@@H](Cc1ccc(O)cc1)C(=O)NCC(=O)N[C@@H](CCCNC(=N)N)C(=O)N[C@@H](CCCCN)C(=O)N[C@@H](CCCCN)C(=O)N[C@@H](CCCNC(=N)N)C(=O)N[C@@H](CCCNC(=N)N)C(=O)N[C@@H](CCC(N)=O)C(=O)N[C@@H](CCCNC(=N)N)C(=O)N[C@@H](CCCNC(=N)N)C(=O)N[C@@H](CCCNC(=N)N)C(=O)O`, the Activity (Alpha-synuclein [1]) is reported as “Active”, the Activity (SH-SY5Y [2]) is reported as 61.65% and the Kd [3] is reported as 14.9 µM. The Activity (HEK-293T [4]) was “Active”, the Activity (HEK-293T [5]) was “Active” and the Activity (HEK-293T [6]) was “Active”. The Activity (HEK-293T [7]) was “Active”, the Activity (HEK-293T [8]) was “Active” and the Activity (HEK-293T [9]) was “Active”. For the same molecule, the Activity (HEK-293T [10]) was “Active”, the Activity (HEK-293T [11]) was “Active” and the Activity (HEK-293T [12]) was “Active”. The Activity (HEK-293T [13]) was “Active”, the Activity (Alpha-synuclein [14]) was “Active” and the Activity [15] was “Active”. The Drug uptake [16] was “Active”, the Activity (SH-SY5Y [17]) was 26.7% and the viability at 25 µM (SH-SY5Y [18]) was 85.6%. For the same molecule, the Activity (SH-SY5Y [19]) was “inactive”, the Activity (Mus musculus [20]) was “Active” and the Activity (Mus musculus [21]) was “Active”. The Activity (Mus musculus [22]) was “Active”, the Activity (Mus musculus [23]) was “Active” and the Activity (Mus musculus [24]) was “Active”. The Activity (Mus musculus [25]) was “Active”, the Activity (Mus musculus [26]) was “Active” and the Activity (Mus musculus [27]) was “Active”. The Activity [28] was “Non-Toxic”, the Activity [29] was “Non-Toxic” and the Activity [30] was “Non-Toxic”. The Activity [31] was “Non-Toxic”.
